From PubChem BioAssay AID330 (DTP/NCI, 2004)
Toxic doses and inconclusive results are not listed.

Test system: P388 leukemia ip, CD2F1 mice, survival T/C
Experiment: NCI In Vivo Anticancer Drug Screen. Data for tumor model P388 Leukemia (intraperitoneal) in CD2F1 (CDF1) mice
Settings: endpoint: median survival time, higher = longer survival
Summary of the method: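 Mice carrying the transplanted tumor received test compound or vehicle. Survival was recorded in each group, and the value is the treated-group measurement divided by that of the vehicle-treated control group.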

[1] = dose: 50.0 mg/kg/injection, schedule: Q01DX009 (ip), vehicle: saline with Tween-80
[2] = dose: 100.0 mg/kg/injection, schedule: Q01DX009 (ip), vehicle: saline with Tween-80
[3] = dose: 200.0 mg/kg/injection, schedule: Q01DX009 (ip), vehicle: saline with Tween-80
[4] = dose: 12.5 mg/kg/injection, schedule: Q01DX001 (ip), vehicle: Klucel (hydroxypropylcellulose) (HPC)
[5] = dose: 50.0 mg/kg/injection, schedule: Q01DX001 (ip), vehicle: Klucel (hydroxypropylcellulose) (HPC)
[6] = dose: 50.0 mg/kg/injection, schedule: Q01DX005 (ip), vehicle: saline
[7] = dose: 100.0 mg/kg/injection, schedule: Q01DX005 (ip), vehicle: saline
[8] = dose: 50.0 mg/kg/injection, schedule: Q01DX009 (ip), vehicle: Klucel (hydroxypropylcellulose) (HPC)
[9] = dose: 100.0 mg/kg/injection, schedule: Q01DX009 (ip), vehicle: Klucel (hydroxypropylcellulose) (HPC)
[10] = dose: 200.0 mg/kg/injection, schedule: Q01DX009 (ip), vehicle: Klucel (hydroxypropylcellulose) (HPC)
[11] = dose: 25.0 mg/kg/injection, schedule: Q01DX009 (ip), vehicle: saline with Tween-80
[12] = dose: 50.0 mg/kg/injection, schedule: Q01DX009 (ip), vehicle: saline
[13] = dose: 100.0 mg/kg/injection, schedule: Q01DX009 (ip), vehicle: saline
[14] = dose: 200.0 mg/kg/injection, schedule: Q01DX009 (ip), vehicle: saline

CC(C)N1CCSC1=S
T/C [1]: 104 % of control | T/C [2]: 90 % of control | T/C [3]: 100 % of control

CNC(=O)OCc1c(-c2ccccc2)nc2n1CCS2
T/C [4]: 108 % of control | T/C (dose: 25.0 mg/kg/injection, schedule: Q01DX001 (ip), vehicle: Klucel (hydroxypropylcellulose) (HPC)): 107 % of control | T/C [5]: 113 % of control

Cc1cnc(NCCCCCCNc2ncc(C)c(-c3ccccc3O)n2)nc1-c1ccccc1O
T/C (dose: 100.0 mg/kg/injection, schedule: Q04DX003 (ip), vehicle: saline with Tween-80): 91 % of control | T/C (dose: 200.0 mg/kg/injection, schedule: Q04DX003 (ip), vehicle: saline with Tween-80): 97 % of control | T/C (dose: 400.0 mg/kg/injection, schedule: Q04DX003 (ip), vehicle: saline with Tween-80): 91 % of control

CCOc1cc(C)c(C(CC(=O)O)CC(=O)N(CCCl)CCCl)cc1C(C)C (stereo not drawn)
T/C (dose: 100.0 mg/kg/injection, schedule: Q04DX003 (ip), vehicle: saline): 107 % of control | T/C (dose: 200.0 mg/kg/injection, schedule: Q04DX003 (ip), vehicle: saline): 100 % of control | T/C (dose: 400.0 mg/kg/injection, schedule: Q04DX003 (ip), vehicle: saline): 108 % of control

Cn1nc(-c2cccc(F)c2)[n+](C)n1
T/C [6]: 102 % of control | T/C [7]: 98 % of control

COc1cc(CC2C(=O)OCC2C2(c3ccc4c(c3)OCO4)SCCCS2)cc(OC)c1OC (stereo not drawn)
T/C [8]: 105 % of control | T/C [9]: 91 % of control | T/C [10]: 93 % of control

O=C(O)C(=O)O.[NH-]CC[NH-].[Pt+2]
T/C (dose: 3.12 mg/kg/injection, schedule: Q04DX002 (ip), vehicle: saline with Tween-80): 117 % of control

Nc1ccc(/C=C/c2ccc3ncccc3c2)cc1
T/C (dose: 12.5 mg/kg/injection, schedule: Q01DX009 (ip), vehicle: saline with Tween-80): 100 % of control | T/C [11]: 109 % of control | T/C [1]: 97 % of control

Cc1ccc2c(c1)nc1sc(C)cc(=O)n12
T/C [8]: 97 % of control | T/C [9]: 95 % of control | T/C [10]: 92 % of control

CC(C)(O)/C=C/C(=O)[C@](C)(O)[C@H]1[C@H](O)C[C@@]2(C)[C@@H]3CC=C4[C@@H](C[C@H](O)C(=O)C4(C)C)[C@]3(C)C(=O)C[C@]12C
T/C (dose: 0.25 mg/kg/injection, schedule: Q01DX009 (ip), vehicle: saline + Tween-80 + alcohol): 118 % of control | T/C (dose: 0.25 mg/kg/injection, schedule: Q01DX009 (ip), vehicle: saline with Tween-80): 105 % of control | T/C (dose: 0.25 mg/kg/injection, schedule: Q01DX009 (ip), vehicle: saline): 113 % of control | T/C (dose: 0.5 mg/kg/injection, schedule: Q01DX009 (ip), vehicle: saline + Tween-80 + alcohol): 121 % of control | T/C (dose: 0.5 mg/kg/injection, schedule: Q01DX009 (ip), vehicle: saline with Tween-80): 108 % of control | T/C (dose: 0.5 mg/kg/injection, schedule: Q01DX009 (ip), vehicle: saline): 111 % of control | T/C (dose: 0.5 mg/kg/injection, schedule: Q01DX010 (ip), vehicle: saline): 95 % of control | T/C (dose: 0.96 mg/kg/injection, schedule: Q01DX009 (ip), vehicle: saline + Tween-80 + alcohol): 152 % of control | T/C (dose: 0.96 mg/kg/injection, schedule: Q01DX009 (ip), vehicle: saline with Tween-80): 105 % of control | T/C (dose: 1.0 mg/kg/injection, schedule: Q01DX009 (ip), vehicle: saline + Tween-80 + alcohol): 118 % of control | T/C (dose: 1.0 mg/kg/injection, schedule: Q01DX009 (ip), vehicle: saline with Tween-80): 119 % of control | T/C (dose: 1.0 mg/kg/injection, schedule: Q01DX009 (ip), vehicle: saline): 111 % of control

CC(C)[Si]1(C(C)C)N([Si](C)(C)F)[Si](C(C)C)(C(C)C)N1[Si](C)(C)F
T/C (dose: 60.0 mg/kg/injection, schedule: Q01DX005 (ip), vehicle: saline): 97 % of control | T/C (dose: 120.0 mg/kg/injection, schedule: Q01DX005 (ip), vehicle: saline): 87 % of control | T/C (dose: 240.0 mg/kg/injection, schedule: Q01DX005 (ip), vehicle: saline): 100 % of control

Cc1nnc2cccc(Cl)n12
T/C [5]: 106 % of control | T/C (dose: 100.0 mg/kg/injection, schedule: Q01DX001 (ip), vehicle: Klucel (hydroxypropylcellulose) (HPC)): 106 % of control | T/C (dose: 200.0 mg/kg/injection, schedule: Q01DX001 (ip), vehicle: Klucel (hydroxypropylcellulose) (HPC)): 99 % of control

CCOc1c(Cc2ccccc2)c(=O)n2c3ccccc3n(CC)c2c1C#N
T/C (dose: 7.5 mg/kg/injection, schedule: Q01DX005 (ip), vehicle: saline with Tween-80): 100 % of control | T/C (dose: 15.0 mg/kg/injection, schedule: Q01DX005 (ip), vehicle: saline with Tween-80): 102 % of control | T/C (dose: 30.0 mg/kg/injection, schedule: Q01DX005 (ip), vehicle: saline with Tween-80): 101 % of control

O=c1c2ccccc2[nH]c(=S)n1-c1cccc(C(F)(F)F)c1
T/C [1]: 92 % of control | T/C [2]: 94 % of control | T/C [3]: 100 % of control

COC(=O)C1(C(=O)O)ON1C(C)(C)C (stereo not drawn)
T/C (dose: 50.0 mg/kg/injection, schedule: Q01DX005 (ip), vehicle: Klucel (hydroxypropylcellulose) (HPC)): 100 % of control | T/C (dose: 100.0 mg/kg/injection, schedule: Q01DX005 (ip), vehicle: Klucel (hydroxypropylcellulose) (HPC)): 100 % of control | T/C (dose: 200.0 mg/kg/injection, schedule: Q01DX005 (ip), vehicle: Klucel (hydroxypropylcellulose) (HPC)): 99 % of control

O=[n+]1c2c(n([O-])c3cc(Cl)c(Cl)cc31)CCC2
T/C (dose: 60.0 mg/kg/injection, schedule: Q01DX005 (ip), vehicle: saline with Tween-80): 95 % of control | T/C (dose: 120.0 mg/kg/injection, schedule: Q01DX005 (ip), vehicle: saline with Tween-80): 95 % of control

c1ccc(-c2nnc3ccccc3n2)cc1
T/C [11]: 99 % of control | T/C [1]: 98 % of control | T/C [2]: 98 % of control | T/C [3]: 93 % of control

CCOC(=O)c1c(N)ssc1=S
T/C [12]: 100 % of control | T/C [13]: 97 % of control | T/C [14]: 105 % of control

O=C1NC(=O)C2(F)CC3(CCCCC3)C2N1 (stereo not drawn)
T/C (dose: 1.5 mg/kg/injection, schedule: Q01DX005 (ip), vehicle: Klucel (hydroxypropylcellulose) (HPC)): 100 % of control | T/C (dose: 3.0 mg/kg/injection, schedule: Q01DX005 (ip), vehicle: Klucel (hydroxypropylcellulose) (HPC)): 102 % of control | T/C (dose: 6.0 mg/kg/injection, schedule: Q01DX005 (ip), vehicle: Klucel (hydroxypropylcellulose) (HPC)): 94 % of control | T/C [4]: 103 % of control

C/C(=N\Nc1cccc2ccccc12)c1ccccn1
T/C (dose: 50.0 mg/kg/injection, schedule: Q01DX005 (ip), vehicle: saline with Tween-80): 111 % of control | T/C (dose: 100.0 mg/kg/injection, schedule: Q01DX005 (ip), vehicle: saline with Tween-80): 103 % of control | T/C (dose: 200.0 mg/kg/injection, schedule: Q01DX005 (ip), vehicle: saline with Tween-80): 98 % of control

Cc1cc(Nc2ccc(C(=O)N/N=C/c3ccc(N(CCCl)CCCl)cc3)cc2)nc2ccc(Cl)cc12
T/C [12]: 90 % of control | T/C [13]: 91 % of control | T/C [14]: 87 % of control

Cc1cc(NC(=O)C(=O)CC(=O)c2ccc(Cl)s2)no1
T/C (dose: 100.0 mg/kg/injection, schedule: Q04DX002 (ip), vehicle: saline with Tween-80): 99 % of control | T/C (dose: 200.0 mg/kg/injection, schedule: Q04DX002 (ip), vehicle: saline with Tween-80): 104 % of control | T/C (dose: 400.0 mg/kg/injection, schedule: Q04DX002 (ip), vehicle: saline with Tween-80): 107 % of control

Cc1[nH]c2ccccc2c1CCCO
T/C [6]: 105 % of control | T/C [7]: 100 % of control | T/C (dose: 200.0 mg/kg/injection, schedule: Q01DX005 (ip), vehicle: saline): 105 % of control

CC(=O)Nc1ccc(S(=O)(=O)Nc2ccc3[nH]c(=O)oc3c2)cc1
T/C (dose: 50.0 mg/kg/injection, schedule: Q04DX002 (ip), vehicle: Klucel (hydroxypropylcellulose) (HPC)): 104 % of control | T/C (dose: 100.0 mg/kg/injection, schedule: Q04DX002 (ip), vehicle: Klucel (hydroxypropylcellulose) (HPC)): 97 % of control | T/C (dose: 200.0 mg/kg/injection, schedule: Q04DX002 (ip), vehicle: Klucel (hydroxypropylcellulose) (HPC)): 97 % of control

O=CNc1c(Br)cc2c(c1Br)Cc1cc([N+](=O)[O-])ccc1-2
T/C (dose: 6.25 mg/kg/injection, schedule: Q01DX009 (ip), vehicle: saline): 97 % of control | T/C (dose: 12.5 mg/kg/injection, schedule: Q01DX009 (ip), vehicle: saline): 90 % of control | T/C (dose: 25.0 mg/kg/injection, schedule: Q01DX009 (ip), vehicle: saline): 92 % of control | T/C [12]: 89 % of control
